# According to ChEMBL document CHEMBL1125558 (J Med Chem, 1992):
# Experiments:
# Assay type in all cases: functional
# [1] = test system: Rattus norvegicus; assay: Mean responses per minute at dose 10 mg/kg evaluated by temporal tests in trained rats(post injection interval 60 min)
# [2] = test system: Rattus norvegicus; assay: Mean responses per minute at dose 1.25 mg/kg evaluated by dose-response tests in trained rats(post injection interval 15 min)
# [3] = test system: Rattus norvegicus; assay: Percent response at dose 2.5 mg/kg evaluated by dose-response tests in trained rats(post injection interval 15 min)
# [4] = test system: Rattus norvegicus; assay: Number of animals(n) completing 20 responses on either lever out of the number of animals tested (N) at dose 10 mg/kg evaluated by temporal tests in trained rats(post injection interval 30 min); n/N=7/7
# [5] = test system: Rattus norvegicus; assay: Percent response at dose 5 mg/kg evaluated by dose-response tests in trained rats(post injection interval 15 min)
# [6] = test system: Rattus norvegicus; assay: Percent response at dose 10 mg/kg evaluated by dose-response tests in trained rats(post injection interval 15 min)
# [7] = test system: Rattus norvegicus; assay: Number of animals(n) completing 20 responses on either lever out of the number of animals tested (N) at dose 10 mg/kg evaluated by temporal tests in trained rats(post injection interval 120 min); n/N=7/7
# [8] = test system: Rattus norvegicus; assay: Number of animals(n) completing 20 responses on either lever out of the number of animals tested (N) at dose 10 mg/kg evaluated by dose-response tests in trained rats(post injection interval 15 min); n/N=7/7
# [9] = test system: Rattus norvegicus; assay: Mean responses per minute at dose 10 mg/kg evaluated by temporal tests in trained rats(post injection interval 120 min)
# [10] = test system: Rattus norvegicus; assay: Number of animals(n) completing 20 responses on either lever out of the number of animals tested (N) at dose 1.25 mg/kg evaluated by dose-response tests in trained rats(post injection interval 15 min); n/N=7/7
# [11] = test system: Rattus norvegicus; assay: Mean responses per minute at dose 5 mg/kg evaluated by dose-response tests in trained rats(post injection interval 15 min)
# [12] = test system: Rattus norvegicus; assay: Percent response at dose 0.62 mg/kg evaluated by dose-response tests in trained rats(post injection interval 15 min)
# [13] = test system: Rattus norvegicus; assay: Percent response at dose 10 mg/kg evaluated by temporal tests in trained rats(post injection interval 30 min)
# [14] = test system: Rattus norvegicus; assay: Mean responses per minute at dose 10 mg/kg evaluated by temporal tests in trained rats(post injection interval 30 min)
# [15] = test system: Rattus norvegicus; assay: Percent response at dose 10 mg/kg evaluated by temporal tests in trained rats(post injection interval 15 min)
# [16] = test system: Rattus norvegicus; assay: Number of animals(n) completing 20 responses on either lever out of the number of animals tested (N) at dose 10 mg/kg evaluated by temporal tests in trained rats(post injection interval 5 min); n/N=7/7
# [17] = test system: Rattus norvegicus; assay: Mean responses per minute at dose 10 mg/kg evaluated by temporal tests in trained rats(post injection interval 15 min)
# [18] = test system: Rattus norvegicus; assay: Mean responses per minute at dose 10 mg/kg evaluated by temporal tests in trained rats(post injection interval 5 min)
# [19] = test system: Rattus norvegicus; assay: Number of animals(n) completing 20 responses on either lever out of the number of animals tested (N) at dose 10 mg/kg evaluated by temporal tests in trained rats(post injection interval 15 min); n/N=7/7
# [20] = test system: Rattus norvegicus; assay: Percent response at dose 10 mg/kg evaluated by temporal tests in trained rats(post injection interval 60 min)
# [21] = test system: Rattus norvegicus; assay: Mean responses per minute at dose 10 mg/kg evaluated by dose-response tests in trained rats(post injection interval 15 min)
# [22] = test system: Rattus norvegicus; assay: Number of animals(n) completing 20 responses on either lever out of the number of animals tested (N) at dose 0.62 mg/kg evaluated by dose-response tests in trained rats(post injection interval 15 min); n/N=7/7
# [23] = test system: Rattus norvegicus; assay: Percent response at dose 1.25 mg/kg evaluated by dose-response tests in trained rats(post injection interval 15 min)
# [24] = test system: Rattus norvegicus; assay: Mean responses per minute at dose 2.5 mg/kg evaluated by dose-response tests in trained rats(post injection interval 15 min)
# [25] = test system: Rattus norvegicus; assay: Mean responses per minute at dose 0.62 mg/kg evaluated by dose-response tests in trained rats(post injection interval 15 min)
# [26] = test system: Rattus norvegicus; assay: Number of animals(n) completing 20 responses on either lever out of the number of animals tested (N) at dose 2.5 mg/kg evaluated by dose-response tests in trained rats(post injection interval 15 min); n/N=7/7
# [27] = test system: Rattus norvegicus; assay: Number of animals(n) completing 20 responses on either lever out of the number of animals tested (N) at dose 5 mg/kg evaluated by dose-response tests in trained rats; n/N=7/7
# [28] = test system: Rattus norvegicus; assay: Percent response at dose 10 mg/kg evaluated by temporal tests in trained rats(post injection interval 120 min)
# [29] = test system: Rattus norvegicus; assay: Percent response at dose 10 mg/kg evaluated by temporal tests in trained rats(post injection interval 5 min)
# [30] = test system: Rattus norvegicus; assay: Number of animals(n) completing 20 responses on either lever out of the number of animals tested (N) at dose 10 mg/kg evaluated by temporal tests in trained rats(post injection interval 60 min); n/N=7/7
structure (smiles),measurement,setting,value
COC(=O)[C@H]1[C@@H](OC(=O)c2ccccc2)C[C@@H]2CC[C@H]1N2C [COCAINE],Rate response,[1],23 min⁻¹
same,Rate response,[2],21 min⁻¹
same,Drug response,[3],61%
same,No. resp animals / Total,[4],7 / 7
same,Drug response,[5],98%
same,Drug response,[6],99%
same,No. resp animals / Total,[7],7 / 7
same,No. resp animals / Total,[8],7 / 7
same,Rate response,[9],28 min⁻¹
same,n/N,[10],7 / 7
same,Rate response,[11],89 min⁻¹
same,Drug response,[12],6%
same,Drug response,[13],100%
same,Rate response,[14],61 min⁻¹
same,Drug response,[15],99%
same,No. resp animals / Total,[16],7 / 7
same,Rate response,[17],76 min⁻¹
same,Rate response,[18],28 min⁻¹
same,No. resp animals / Total,[19],7 / 7
same,Drug response,[20],81%
same,Rate response,[21],76 min⁻¹
same,No. resp animals / Total,[22],7 / 7
same,Drug response,[23],44%
same,Rate response,[24],32 min⁻¹
same,Rate response,[25],27 min⁻¹
same,No. resp animals / Total,[26],7 / 7
same,No. resp animals / Total,[27],7 / 7
same,Drug response,[28],31%
same,Drug response,[29],85%
same,No. resp animals / Total,[30],7 / 7
